Data on 19 compounds can be found in US12365696B2, “Small-molecule focal adhesion kinase (FAK) inhibitors” (DANA-FARBER CANCER INSTITUTE, INC., priority 2019, dated 2025).

The target of test [1] is PTK2 (FAK) (Homo sapiens (Human), UniProt Q05397). Description: Z′-LYTE kinase assay (SelectScreen Biochemical Kinase Profiling), enzymatic IC50. The settings on record: for IC50: enzymatic, Z′-LYTE, read-out: FAK IC50. How it is done:
Enzymatic IC50 data was obtained through ThermoFisher Scientific SelectScreen™ Biochemical Kinase Profiling Service, using a Z′-LYTE™ kinase-specific assay, as described below.
The test compounds were screened in 1% dimethyl sulfoxide (DMSO) (final) in the well. For 10 point titrations, 3-fold serial dilutions were conducted from the starting concentration.
All peptide/kinase mixtures were diluted to a 2× working concentration in the appropriate kinase buffer (see section kinase specific assay conditions for a complete description).
All ATP solutions were diluted to a 4× working concentration in kinase buffer (50 mM 4-(2-hydroxyethyl)-1-piperazineethanesulfonic acid (HEPES) pH 7.5, 0.01% BRIJ-35, 10 mM MgCl2, 1 mM ethylene glycol-bis(β-aminoethyl ether)-N,N,N′,N′-tetraacetic acid (EGTA)). ATP Km apparent was previously determined using a Z′-LYTE assay.
The development reagent was diluted in development buffer (see section kinase-specific assay conditions—direct and cascade for a complete description).
Using a bar-coded Corning, low volume NBS, black 384-well plate (Corning Cat. #4514), 100 nL of 100× test compound in 100% DMSO was added. […] The plate was then shaken for 30 seconds and held at room temperature for a 60 minute kinase reaction incubation period. At which point 5 μL of development reagent solution was added and the plate was shaken for 30 seconds. The plate was held again at room temperature for a 60 minute development reaction incubation period and then read on a fluorescence plate reader and analyzed.
The 2×PTK2 (FAK)/Tyr 07 mixture was prepared in 50 mM HEPES pH 7.5, 0.01% BRIJ-35, 10 mM MgCl2, 1 mM EGTA. […] After the 1 hour kinase reaction incubation period, 5 μL of a 1:16 dilution of development reagent B was added.
SelectScreen Kinase Profiling Service uses XLfit from ID Business Solutions (IDBS). The dose response curve was curve fit to model number 205 (sigmoidal dose-response model).

The subject of test [2] is MDA-MB-231 cells. The test can be described thus: 2D-adherent monolayer cell viability (Cell Titer-Glo), 120 hrs. The settings on record: Homo sapiens. The format is cell-based. How it is done:
For 2D-adherent monolayer experiments, MDA-MB-231 cells were plated in 384-well format and allowed to adhere overnight. Cells were treated with indicated molecules from compound stock plates using a JANUS® Workstation pin tool for 120 hrs. To measure cell viability, Cell Titer-Glo® was added to wells for 15 minutes at room temperature and luminescence was measured on an EnVision™ 2104 Multilabel Plate Reader.
Inventive compound treatment (0.00063-20 μM) led to antiproliferative effects in MDA-MB-231 cells cultured as 2D-adherent monolayers or as ultra-low adherent 3D-spheroid suspensions (Table 5).

In test [3] the test system is MDA-MB-231 cells. Description: ultra-low adherent 3D-spheroid suspension cell viability (3D Cell Titer-Glo), 120 hours. The format is cell-based. The conditions noted are these: Homo sapiens. On the procedure: For ultra-low adherent 3D-spheroid suspensions, MDA-MB-231 cells were plated in 384-well format in media containing 10% Matrigel® and allowed to form spheroids overnight. Cells were treated with indicated molecules from compound stock plates using a JANUS® Workstation pin tool for 120 hours. To measure cell viability, 3D Cell Titer-Glo® was added to wells for 15 minutes at room temperature and luminescence was measured on an EnVision™ 2104 Multilabel Plate Reader.

A value given as a limit tells only on which side of the number the result lay.

Chain of PTK2 (FAK) (Q05397 whole entry): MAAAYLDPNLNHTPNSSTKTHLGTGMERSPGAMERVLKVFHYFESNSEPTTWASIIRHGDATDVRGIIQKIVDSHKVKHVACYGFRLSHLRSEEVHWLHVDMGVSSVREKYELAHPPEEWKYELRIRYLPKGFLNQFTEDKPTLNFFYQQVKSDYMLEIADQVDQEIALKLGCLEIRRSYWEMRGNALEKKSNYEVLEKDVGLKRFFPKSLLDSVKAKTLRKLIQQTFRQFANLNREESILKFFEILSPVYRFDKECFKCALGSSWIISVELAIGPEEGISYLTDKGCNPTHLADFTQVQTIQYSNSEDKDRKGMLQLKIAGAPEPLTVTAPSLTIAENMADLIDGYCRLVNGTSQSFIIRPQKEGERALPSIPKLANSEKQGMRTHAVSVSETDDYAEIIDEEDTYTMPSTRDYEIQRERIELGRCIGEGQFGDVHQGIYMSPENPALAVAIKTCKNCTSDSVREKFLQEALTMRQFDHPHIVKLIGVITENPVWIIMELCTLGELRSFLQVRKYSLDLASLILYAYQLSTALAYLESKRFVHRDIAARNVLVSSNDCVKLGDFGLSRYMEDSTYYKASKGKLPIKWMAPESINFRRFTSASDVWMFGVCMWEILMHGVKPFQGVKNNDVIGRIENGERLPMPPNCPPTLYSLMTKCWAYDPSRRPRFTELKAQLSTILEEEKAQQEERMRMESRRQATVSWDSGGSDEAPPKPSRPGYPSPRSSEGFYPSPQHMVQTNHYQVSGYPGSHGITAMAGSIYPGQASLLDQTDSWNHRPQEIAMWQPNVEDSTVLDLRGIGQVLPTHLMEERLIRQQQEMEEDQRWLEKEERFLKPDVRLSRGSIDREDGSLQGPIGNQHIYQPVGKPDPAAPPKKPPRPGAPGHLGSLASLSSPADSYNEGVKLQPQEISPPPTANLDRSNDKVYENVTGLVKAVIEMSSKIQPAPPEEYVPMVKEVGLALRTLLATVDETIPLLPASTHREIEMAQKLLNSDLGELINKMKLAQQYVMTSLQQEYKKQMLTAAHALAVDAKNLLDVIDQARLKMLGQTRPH

As to `CCN1c2nc(Nc3ccc(N4CCC(N5CCN(C)CC5)CC4)cc3OC)ncc2N(C)C(=O)c2nc(C)sc21` [Compound 159, 4-ethyl-6-((2-methoxy-4-(4-(4-methylpiperazin-1-yl)piperidin-1-yl)phenyl)amino)-2,9-dimethyl-4,9-dihydro-10H-pyrimido[5,4-b]thiazolo[5,4-e][1,4]diazepin-10-one], the figures for the IC50 in test [1], in test [2] and in test [3] were 22.9 nM, greater than 10000 nM and greater than 10000 nM, respectively.
With `CCOc1cc(N2CCN(C)CC2)ccc1Nc1ncc2c(n1)N(C)c1sc(C)nc1C(=O)N2C` [Compound 16, 6-((2-ethoxy-4-(4-methylpiperazin-1-yl)phenyl)amino)-2,4,9-trimethyl-4,9-dihydro-10H-pyrimido[5,4-b]thiazolo[5,4-e][1,4]diazepin-10-one], the values for the IC50 in test [1], in test [2] and in test [3] were 54.5 nM, greater than 10000 nM and 6100 nM, respectively.
`COc1cc(N2CCN(C)CC2)ccc1Nc1ncc2c(n1)N(C)c1sc(C)nc1C(=O)N2C` [Compound 14, 6-((2-methoxy-4-(4-methylpiperazin-1-yl)phenyl)amino)-2,4,9-trimethyl-4,9-dihydro-10H-pyrimido[5,4-b]thiazolo[5,4-e][1,4]diazepin-10-one]: the values for the IC50 in test [1], in test [2] and in test [3] were 30.3 nM, greater than 10000 nM and 2300 nM, respectively.
For `COc1cc(N2CCN(S(C)(=O)=O)CC2)ccc1Nc1ncc2c(n1)N(C)c1sc(C)nc1C(=O)N2C` [Compound 198, 6-((2-methoxy-4-(4-(methylsulfonyl)piperazin-1-yl)phenyl)amino)-2,4,9-trimethyl-4,9-dihydro-10H-pyrimido[5,4-b]thiazolo[5,4-e][1,4]diazepin-10-one], in that order: 46.9 nM, greater than 10000 nM and greater than 10000 nM.
Take `CCN1C(=O)c2nc(C)sc2N(C)c2nc(Nc3ccc(N4CCC(N5CCN(C)CC5)CC4)cc3OC)ncc21` [Compound 132, 9-ethyl-6-((2-methoxy-4-(4-(4-methylpiperazin-1-yl)piperidin-1-yl)phenyl)amino)-2,4-dimethyl-4,9-dihydro-10H-pyrimido[5,4-b]thiazolo[5,4-e][1,4]diazepin-10-one]: the values for the IC50 in test [1], in test [2] and in test [3] were 18.8 nM, greater than 10000 nM and 930 nM, respectively.
Regarding `CNC(=O)c1ccc(Nc2ncc3c(n2)N(C)c2sc(C)nc2C(=O)N3C)cc1` [Compound 197, N-methyl-4-((2,4,9-trimethyl-10-oxo-9,10-dihydro-4H-pyrimido[5,4-b]thiazolo[5,4-e][1,4]diazepin-6-yl)amino)benzamide], the IC50 was 173 nM in test [1], greater than 10000 nM in test [2] and 5900 nM in test [3].
For the compound `COc1cc(N2CCN(C)CC2)c(C)cc1Nc1ncc2c(n1)N(C)c1sc(C)nc1C(=O)N2C` [Compound 18, 6-((2-methoxy-5-methyl-4-(4-methylpiperazin-1-yl)phenyl)amino)-2,4,9-trimethyl-4,9-dihydro-10H-pyrimido[5,4-b]thiazolo[5,4-e][1,4]diazepin-10-one], the figures for the IC50 in test [1], in test [2] and in test [3] were 31.5 nM, greater than 10000 nM and 7700 nM, respectively.
Turning to `COc1cc(C2CCN(C)CC2)ccc1Nc1ncc2c(n1)N(C)c1sc(C)nc1C(=O)N2C` [Compound 19, 6-((2-methoxy-4-(1-methylpiperidin-4-yl)phenyl)amino)-2,4,9-trimethyl-4,9-dihydro-10H-pyrimido[5,4-b]thiazolo[5,4-e][1,4]diazepin-10-one], the IC50 in test [1] worked out at 51.9 nM; in test [2] it was 8900 nM; in test [3], 3700 nM.
`COc1cc(N2CCNCC2)ccc1Nc1ncc2c(n1)N(C)c1sc(C)nc1C(=O)N2C` [Compound 12, 6-((2-methoxy-4-(piperazin-1-yl)phenyl)amino)-2,4,9-trimethyl-4,9-dihydro-10H-pyrimido[5,4-b]thiazolo[5,4-e][1,4]diazepin-10-one]: the figures for the IC50 in test [1], in test [2] and in test [3] were 43.5 nM, greater than 10000 nM and 2500 nM, respectively.
Consider `Cc1nc2c(s1)N(C)c1nc(Nc3ccc4c(c3)CCC(=O)N4)ncc1N(C)C2=O` [Compound 23, 2,4,9-trimethyl-6-((2-oxo-1,2,3,4-tetrahydroquinolin-6-yl)amino)-4,9-dihydro-10H-pyrimido[5,4-b]thiazolo[5,4-e][1,4]diazepin-10-one], for which the half-maximal inhibitory concentration (IC50) in test [1] was 670 nM; in test [2] it was greater than 10000 nM; in test [3], greater than 10000 nM.
As to `COc1cc(N2CCN(CCO)CC2)ccc1Nc1ncc2c(n1)N(C)c1sc(C)nc1C(=O)N2C` [Compound 20, 6-((4-(4-(2-hydroxyethyl)piperazin-1-yl)-2-methoxyphenyl)amino)-2,4,9-trimethyl-4,9-dihydro-10H-pyrimido[5,4-b]thiazolo[5,4-e][1,4]diazepin-10-one], the IC50 in test [1] was 73.9 nM; in test [2] it was greater than 10000 nM; in test [3] it was greater than 10000 nM.
For `Cc1nc2c(s1)N(C)c1nc(Nc3cnn(C)c3)ncc1N(C)C2=O` [Compound 26, 2,4,9-trimethyl-6-((1-methyl-1H-pyrazol-4-yl)amino)-4,9-dihydro-10H-pyrimido[5,4-b]thiazolo[5,4-e][1,4]diazepin-10-one], in test [1], the half-inhibitory concentration (IC50) came to 666 nM.
The same measure, in the same setting: the value for `CCN1c2nc(Nc3ccc(N4CCC(N5CCN(C)CC5)CC4)cc3OC)ncc2NC(=O)c2nc(C)sc21` [Compound 9, 4-ethyl-6-((2-methoxy-4-(4-(4-methylpiperazin-1-yl)piperidin-1-yl)phenyl)amino)-2-methyl-4,9-dihydro-10H-pyrimido[5,4-b]thiazolo[5,4-e][1,4]diazepin-10-one] was 45.1 nM; that for `CNC(=O)c1ccc(Nc2ncc3c(n2)N(C)c2sc(C)nc2C(=O)N3)cc1` [Compound 10, 4-((2,4-dimethyl-10-oxo-9,10-dihydro-4H-pyrimido[5,4-b]thiazolo[5,4-e][1,4]diazepin-6-yl)amino)-N-methylbenzamide] was 129 nM.
On to `COc1cc(N2CCC(N3CCN(C)CC3)CC2)ccc1Nc1ncc2c(n1)N(C)c1sc(C(F)(F)F)nc1C(=O)N2C` [Compound 177, 6-((2-methoxy-4-(4-(4-methylpiperazin-1-yl)piperidin-1-yl)phenyl)amino)-4,9-dimethyl-2-(trifluoromethyl)-4,9-dihydro-10H-pyrimido[5,4-b]thiazolo[5,4-e][1,4]diazepin-10-one], for which, in test [1] (FAK IC50), the “lower potency relative to 5” value was roughly 10 fold. The concentration for half-maximal inhibition (IC50) in test [1] was found to be 134 nM.
In the case of `COc1cc(N2CCN(C3CCN(C)CC3)CC2)ccc1Nc1ncc2c(n1)N(C)c1sc(C)nc1C(=O)N2C` [Compound 195, 6-((2-methoxy-4-(4-(1-methylpiperidin-4-yl)piperazin-1-yl)phenyl)amino)-2,4,9-trimethyl-4,9-dihydro-10H-pyrimido[5,4-b]thiazolo[5,4-e][1,4]diazepin-10-one], the IC50 in test [1] stood at 62.9 nM.
Regarding `CCCOc1cc(N2CCN(C)CC2)ccc1Nc1ncc2c(n1)N(C)c1sc(C)nc1C(=O)N2C` [Compound 202, 2,4,9-trimethyl-6-((4-(4-methylpiperazin-1-yl)-2-propoxyphenyl)amino)-4,9-dihydro-10H-pyrimido[5,4-b]thiazolo[5,4-e][1,4]diazepin-10-one], the concentration for half-maximal inhibition (IC50) in test [1] is 155 nM.
Turning to `COc1cc(N2CCN(C(C)=O)CC2)ccc1Nc1ncc2c(n1)N(C)c1sc(C)nc1C(=O)N2C` [Compound 199, 6-((4-(4-acetylpiperazin-1-yl)-2-methoxyphenyl)amino)-2,4,9-trimethyl-4,9-dihydro-10H-pyrimido[5,4-b]thiazolo[5,4-e][1,4]diazepin-10-one], the half-maximal inhibitory concentration (IC50) in test [1] was determined as 45.7 nM.
Regarding `COc1cc(Nc2ncc3c(n2)N(C)c2sc(C)nc2C(=O)N3)ccc1N1CCC(N2CCN(C)CC2)CC1` [Compound 194, 6-((3-methoxy-4-(4-(4-methylpiperazin-1-yl)piperidin-1-yl)phenyl)amino)-2,4-dimethyl-4,9-dihydro-10H-pyrimido[5,4-b]thiazolo[5,4-e][1,4]diazepin-10-one], the IC50 in test [1] came out at 55.7 nM.

A word on the IC50: it is the concentration at which inhibition is half-maximal.
